# From ChEMBL document CHEMBL1154494, “A highly sensitive fluorogenic probe for cytochrome P450 activity in live cells” (Bioorg Med Chem Lett, 2008)
# The source made the active and inactive calls. The calls are words filed in the database; no cut-off is given here.
# Assays:
# A549 [1] = experiment: Inhibition of CYP1A1 level in human A549 cells at 10 uM after 1 hr using Hoechst staining by fluorogenic assay in presence of CYP1A1 inducer TCDD and CYP1A1 inhibitior resveratrol; assay type: functional, cell-based
# A549 [2] = experiment: Induction of CYP1A1 level in human A549 cells at 10 uM after 1 hr using Hoechst staining by fluorogenic assay in presence of CYP1A1 inducer TCDD; assay type: functional, cell-based
# A549 [3] = experiment: Induction of CYP1A1 level in human A549 cells at 10 uM after 1 hr using Hoechst staining by fluorogenic assay; assay type: functional, cell-based
# [4] = substrate: CCOc1cc(C)cc(C)c1C(C)(C)CC(=O)Nc1ccc2c(c1)Oc1cc(NC(=O)N3CCOCC3)ccc1C21Oc2ccccc2C1=O; experiment: Activity of human CYP1A1 by fluorogenic assay; assay type: ADME
Molecule,Activity (A549 [1]),Activity (A549 [2]),Activity (A549 [3]),Km [4] [µM],kcat/Km [4] [M⁻¹ s⁻¹]
CCOc1cc(C)cc(C)c1C(C)(C)CC(=O)Nc1ccc2c(c1)Oc1cc(NC(=O)N3CCOCC3)ccc1C21OC(=O)c2ccccc21 (stereo not given),Active,Active,Active,–,–
Cytochrome P450 1A1 (Homo sapiens) (protein) MLFPISMSATEFLLASVIFCLVFWVIRASRPQVPKGLKNPPGPWGWPLIGHMLTLGKNPHLALSRMSQQYGDVLQIRIGSTPVVVLSGLDTIRQALVRQGDDFKGRPDLYTFTLISNGQSMSFSPDSGPVWAARRRLAQNGLKSFSIASDPASSTSCYLEEHVSKEAEVLISTLQELMAGPGHFNPYRYVVVSVTNVICAICFGRRYDHNHQELLSLVNLNNNFGEVVGSGNPADFIPILRYLPNPSLNAFKDLNEKFYSFMQKMVKEHYKTFEKGHIRDITDSLIEHCQEKQLDENANVQLSDEKIINIVLDLFGAGFDTVTTAISWSLMYLVMNPRVQRKIQEELDTVIGRSRRPRLSDRSHLPYMEAFILETFRHSSFVPFTIPHSTTRDTSLKGFYIPKGRCVFVNQWQINHDQKLWVNPSEFLPERFLTPDGAIDKVLSEKVIIFGMGKRKCIGETIARWEVFLFLAILLQRVEFSVPLGVKVDMTPIYGLTMKHACCEHFQMQLRS,–,–,–,0.09,8800
